Read-outs that look alike come from different tables or passages of the source.
What was measured:
MDCK-MOCK cells [1] = test: MTT drug sensitivity assay in MDCK-MOCK cells; type: cell-based, canine; conditions: read-out: IC50 MDCK-MOCK
Protocol: (§1) Cytotoxicity of the platinum-based compounds was measured by MTT (thiazolyl blue tetrazolium bromide) assay. Cells were seeded in 100 μl of the culture medium without any antibiotics in 96-well plates at a predetermined cell density. For HEK 293 cells, poly-D-lysine coated plates were used. After overnight incubation, the platinum-based compounds were then added to the culture medium to give the indicated final concentrations. For the OCT inhibitor studies, the inhibitors (i.e., disopyramide or cimetidine) were added to the medium at a specified concentration immediately before the addition of the platinum-based compounds. After incubation for a specified time period, the drug-containing medium was replaced with fresh, drug-free medium and the incubation was continued for a total of 72 hours (start from the addition of platinum-based compounds). Then, the MTT assay was performed similarly as described in Alley et al., Cancer Res., 48:589-601 (1988). […] The maximal cell growth was the cell growth in the medium without any platinum-based compounds; C is the concentration of the platinum-based compound, and γ is the slope factor.
(§2) Briefly, the cells were seeded in 96-well plates at a density of 5,000 cells/well for the transfected MDCK cells or 12,000 cells/well for the transfected HEK 293 cells. The platinum-based drugs were added on the following day. After the specified time periods of drug exposure, the drug-containing medium was replaced with fresh, drug-free medium, and the incubation was continued for a total of 72 hours (start from the time when the drug was added). After incubation, the cell growth was determined by an MTT assay. Data are expressed as mean±SD from 3 to 6 independent experiments with each performed in quadruplicate. The resistance factor (RF) was defined as the ratio of the mean IC50 value in the MOCK cells to that in the OCT-transfected cells.
(§3) Briefly, MDCK cells were seeded at a density of 5,000 cells/well in 96-well plates and exposed to the test compounds for 7 hours on the following day. After incubation for a total of 72 hours, the cell growth was determined by an MTT assay. The data for carboplatin was taken from Table 1 and was not determined simultaneously with the other compounds. The resistance factor (RF) was defined as the ratio of the mean IC50 value in MDCK-MOCK cells to that in MDCK-hOCT1 cells. Data are expressed as mean±SD from six measurements, and each measurement was performed in quadruplicate.

MDCK-hOCT1 cells [2] = test: MTT drug sensitivity assay in MDCK-hOCT1 cells; type: cell-based, canine; conditions: read-out: IC50 MDCK-hOCT1
Protocol: as §1, with “After overnight incubation, the platinum-based compounds were then added to the culture medium to give the indicated final concentrations.” left out
as §2, §3

MDCK-hOCT1 cells [3] = test: Cellular accumulation of platinum in MDCK-hOCT1 cells (ICP-MS); type: in vitro ADME, canine; conditions: 2-hr exposure
Protocol: (§4) For the inhibitor studies, the incubation medium also contained disopyramide (150 μM). […] For the inhibitor studies, the incubation medium also contained cimetidine (1.5 mM). […] After drug exposure, the cells were washed with ice-cold PBS three times and harvested by scraping and centrifugation. The cell-associated platinum was determined by ICP-MS and normalized for protein content. Data are expressed as mean±SD from a single experiment performed in triplicate. Experiments were replicated for OCT1 and OCT2, and similar results were obtained.
(§5) The cellular accumulation of platinum was determined as described in Holzer et al., Mol. Pharmacol., 66:817-823 (2004) with some modifications. Briefly, the cells were grown in 100 mm×20 mm dishes in the culture medium without any antibiotics to over 90% confluence. For HEK 293 cells, poly-D-lysine coated dishes were used. For platinum accumulation, the cells were incubated in the culture medium containing the indicated concentrations of the platinum compounds at 37° C. in 5% CO2 for 2 hr unless specified. After incubation, the dishes were immediately placed on ice and the cells were washed with 6 ml of ice-cold PBS for three times and collected with a rubber policeman. The cell pellets were obtained by centrifugation at 400×g and at 4° C. for 15 min. For the OCT inhibitor studies, the incubation medium also contained the indicated inhibitor (i.e., disopyramide or cimetidine) in addition to the platinum-based compounds. The resulting cell pellets were then dissolved into 200 μl of 70% nitric acid at 65° C. for at least 2.5 hours, and then distilled water containing 10 ppb of iridium (Sigma) and 0.1% Triton X-100 was added to the samples to dilute nitric acid to 7%. The platinum content was measured by inductively plasma coupled mass spectrometry (ICP-MS) in the Analytical Facility at the University of California at Santa Cruz (Santa Cruz, Calif.). Cell lysates from a set of identical cultures were used for BCA protein assay.

HEK-MOCK cells [4] = test: MTT drug sensitivity assay in HEK-MOCK cells (control of HEK-hOCT2); type: cell-based, human; conditions: drug exposure 7 hour; Table 2; read-out: IC50 HEK-MOCK
Protocol: as §1, §2

HEK-MOCK cells [5] = test: Cellular accumulation of platinum in HEK-MOCK cells (ICP-MS); type: in vitro ADME, human; conditions: cimetidine 1.5 mM
Protocol: as §4
The cellular accumulation of platinum was determined as described in Holzer et al., Mol. Pharmacol., 66:817-823 (2004) with some modifications. Briefly, the cells were grown in 100 mm×20 mm dishes in the culture medium without any antibiotics to over 90% confluence. For HEK 293 cells, poly-D-lysine coated dishes were used. For platinum accumulation, the cells were incubated in the culture medium containing the indicated concentrations of the platinum compounds at 37° C. in 5% CO2 for 2 hr unless specified. […] The platinum content was measured by inductively plasma coupled mass spectrometry (ICP-MS) in the Analytical Facility at the University of California at Santa Cruz (Santa Cruz, Calif.). […]

MDCK-MOCK cells [6] = test: Cellular accumulation of platinum in MDCK-MOCK cells (ICP-MS); type: in vitro ADME, canine; conditions: 2-hr exposure, drug 15 μM
Protocol: as §4, §5

HEK-MOCK cells [7] = test: MTT drug sensitivity assay in HEK-MOCK cells (control of HEK-hOCT3); type: cell-based, human; conditions: drug exposure 7 hour; Table 3
Protocol: as §1, §2

HEK-hOCT2 cells [8] = test: Cellular accumulation of platinum in HEK-hOCT2 cells (ICP-MS); type: in vitro ADME, human; conditions: 2-hr exposure
Protocol: as §4, §5

HEK-hOCT2 cells [9] = test: MTT drug sensitivity assay in HEK-hOCT2 cells; type: cell-based, human; conditions: drug exposure 7 hour; read-out: IC50 HEK-hOCT2
Protocol: as §1, with “After overnight incubation, the platinum-based compounds were then added to the culture medium to give the indicated final concentrations.” left out
as §2

HEK-hOCT3 cells = test: MTT drug sensitivity assay in HEK-hOCT3 cells; type: cell-based, human; conditions: drug exposure 7 hour
Protocol: as §1, with “After overnight incubation, the platinum-based compounds were then added to the culture medium to give the indicated final concentrations.” left out
as §2

DLD = test: MTT drug sensitivity, colon cancer cell line DLD; type: cell-based, human
Protocol: as §1, with “After overnight incubation, the platinum-based compounds were then added to the culture medium to give the indicated final concentrations.” left out
(§6) The cell seeding density was 6,000-, 8,000-, 6,000-, 15,000-12,000- and 4,000 cells/well for HCT116, HT29, RKO, SW620, LS180, and DLD cells, respectively. When cimetidine (1.5 mM) was used, it was added to the wells immediately before the addition of the platinum-based drugs. The resistance factor (RF) was defined as the ratio of the mean IC50 value in the presence to that in the absence of cimetidine. Data are expressed as mean±SD from six measurements, and each measurement was performed in quadruplicate.

[10] = tested on: six colon cancer cell lines; test: MTT drug sensitivity, summary over the six colon cancer cell lines; type: cell-based, human
Protocol: as §1, with “After overnight incubation, the platinum-based compounds were then added to the culture medium to give the indicated final concentrations.” left out
The resistance factor (RF) due to the presence of cimetidine was defined as the ratio of the IC50 value in the presence of cimetidine to that in the absence of cimetidine.
as §6

HT29 = test: MTT drug sensitivity, colon cancer cell line HT29; type: cell-based, human
Protocol: as §1, with “After overnight incubation, the platinum-based compounds were then added to the culture medium to give the indicated final concentrations.” left out
as §6

LS180 = test: MTT drug sensitivity, colon cancer cell line LS180; type: cell-based, human
Protocol: as §1, with “After overnight incubation, the platinum-based compounds were then added to the culture medium to give the indicated final concentrations.” left out
as §6

SW620 = test: MTT drug sensitivity, colon cancer cell line SW620; type: cell-based, human
Protocol: as §1, with “After overnight incubation, the platinum-based compounds were then added to the culture medium to give the indicated final concentrations.” left out
as §6

HCT116 = test: MTT drug sensitivity, colon cancer cell line HCT116; type: cell-based, human
Protocol: as §1, with “After overnight incubation, the platinum-based compounds were then added to the culture medium to give the indicated final concentrations.” left out
as §6

RKO = test: MTT drug sensitivity, colon cancer cell line RKO; type: cell-based, human
Protocol: as §1, with “After overnight incubation, the platinum-based compounds were then added to the culture medium to give the indicated final concentrations.” left out
as §6

[11] = SAR study Table 4, 7 hours of drug exposure
[12] = drug exposure 7 hour, MTT at 72 hours, Table 1
[13] = absence of cimetidine, read-out: IC50 Control
[14] = cimetidine 1.5 mM, read-out: IC50 Cimetidine-treated

Compound | IC50 (MDCK-MOCK cells [1]; [11]) [µM] | IC50 (MDCK-hOCT1 cells [2]; [11]) [µM] | IC50 (HEK-MOCK cells [4]) [µM] | IC50 (HEK-MOCK cells [7]) [µM] | IC50 (MDCK-MOCK cells [1]; [12]) [µM] | IC50 (MDCK-hOCT1 cells [2]; [12]) [µM] | IC50 (HEK-hOCT2 cells [9]) [µM] | IC50 (HEK-hOCT3 cells) [µM] | other results
O=C1[O][Pt]2([NH]C3CCCCC3[NH]2)[O]C1=O [[Pt(S,S-DACH)oxalato]] | 30 ± 14.2 | 1.45 ± 1.16 |  |  |  |  |  |  | 
N.N.O=C([O-])C1(C(=O)[O-])CCC1.[Pt+2] [carboplatin] | 258 ± 86.3 | 227 ± 85.8 | 110 ± 46.3 | 84.8 ± 9.71 | 258 ± 86.3 | 227 ± 85.8 | 61.6 ± 46.3 | 48.1 ± 23.4 | cellular platinum accumulation rate in MDCK-hOCT1 (MDCK-hOCT1 cells [3]; drug 15 μM): 2.77±0.36 pmol/mg protein-hr; effect of disopyramide on platinum accumulation rate in MDCK-hOCT1 (MDCK-hOCT1 cells [3]; disopyramide 150 μM): not inhibited by disopyramide; effect of cimetidine on platinum accumulation / cellular uptake in HEK-MOCK (HEK-MOCK cells [5]): little effect; cellular platinum accumulation rate in MDCK-MOCK (MDCK-MOCK cells [6]): 2.22±0.07 pmol/mg protein-hr; fold higher platinum accumulation rate, HEK-hOCT2 vs HEK-MOCK (HEK-hOCT2 cells [8]): 1.38 fold; cellular platinum accumulation rate in HEK-hOCT2 (HEK-hOCT2 cells [8]; drug 10 μM): 4.17±0.18 pmol/mg protein-hr
N.NC1CCCCC1.[Cl][Pt][Cl] [cis-[Pt(NH3)(Cy)Cl2]] | 1.42 ± 0.15 | 0.16 ± 0.03 |  |  |  |  |  |  | 
N.N.[Cl][Pt][Cl] [cisplatin] | 6.32 ± 0.74 | 3.58 ± 0.3 | 2.95 ± 0.23 | 2.83 ± 0.9 | 19.6 ± 7.56 | 15.4 ± 2.84 | 1.32 ± 0.18 | 2.44 ± 0.71 | IC50 (DLD; [13]): 18.4 ± 7.58 µM; IC50 (DLD; [14]): 32.3 ± 10.3 µM; IC50 ([10]; absence of cimetidine, read-out: mean±SE of IC50 in the six cell lines, control): 10.5 ± 2.02 µM; IC50 ([10]; cimetidine 1.5 mM, read-out: mean±SE of IC50 in the six cell lines, in the presence of cimetidine): 19.4 ± 4.32 µM; IC50 (HT29; HT29, absence of cimetidine, read-out: IC50 Control): 12.4 ± 3.91 µM; IC50 (HT29; HT29, cimetidine 1.5 mM, read-out: IC50 Cimetidine-treated): 30.8 ± 11 µM; IC50 (LS180; LS180, absence of cimetidine, read-out: IC50 Control): 5.72 ± 1.75 µM; IC50 (LS180; LS180, cimetidine 1.5 mM, read-out: IC50 Cimetidine-treated): 8.27 ± 3.35 µM; IC50 (SW620; SW620, absence of cimetidine, read-out: IC50 Control): 12.6 ± 1.95 µM; IC50 (SW620; SW620, cimetidine 1.5 mM, read-out: IC50 Cimetidine-treated): 22.2 ± 4.92 µM; IC50 (HCT116; HCT116, absence of cimetidine, read-out: IC50 Control): 5.42 ± 1.34 µM; IC50 (HCT116; HCT116, cimetidine 1.5 mM, read-out: IC50 Cimetidine-treated): 10.2 ± 3.23 µM; IC50 (RKO; [13]): 8.58 ± 2.38 µM; IC50 (RKO; [14]): 12.5 ± 4.44 µM
[Pt(NH3)2(trans-1,2-(OCO)2C6H10)] [[Pt(NH3)2(trans-1,2-(OCO)2C6H10]] | 21.4 ± 2.94 | 10.8 ± 2.66 |  |  |  |  |  |  | 
